According to ChEMBL document CHEMBL4706640, “Structure-Based Drug Design and Synthesis of PI3Kα-Selective Inhibitor (PF-06843195)” (J Med Chem, 2021):
pIC50, pKi: −log10 of the molar value. ≈ marks a conversion by molar mass, not a printed value.

Experiments:
PI3K p110 beta/p85 alpha = PI3K p110 beta/p85 alpha (Homo sapiens, UniProt P42338); test: Inhibition of recombinant human PI3K p110beta/p85alpha using phosphatidylinositol 4,5-bisphosphate as substrate preincubated for 15 mins followed by addition of ATP and measured after 30 mins by fluorescence polarisation assay; assay type: protein-complex assay
PI3K p110 beta/p85 alpha, sequence (P27986 whole entry): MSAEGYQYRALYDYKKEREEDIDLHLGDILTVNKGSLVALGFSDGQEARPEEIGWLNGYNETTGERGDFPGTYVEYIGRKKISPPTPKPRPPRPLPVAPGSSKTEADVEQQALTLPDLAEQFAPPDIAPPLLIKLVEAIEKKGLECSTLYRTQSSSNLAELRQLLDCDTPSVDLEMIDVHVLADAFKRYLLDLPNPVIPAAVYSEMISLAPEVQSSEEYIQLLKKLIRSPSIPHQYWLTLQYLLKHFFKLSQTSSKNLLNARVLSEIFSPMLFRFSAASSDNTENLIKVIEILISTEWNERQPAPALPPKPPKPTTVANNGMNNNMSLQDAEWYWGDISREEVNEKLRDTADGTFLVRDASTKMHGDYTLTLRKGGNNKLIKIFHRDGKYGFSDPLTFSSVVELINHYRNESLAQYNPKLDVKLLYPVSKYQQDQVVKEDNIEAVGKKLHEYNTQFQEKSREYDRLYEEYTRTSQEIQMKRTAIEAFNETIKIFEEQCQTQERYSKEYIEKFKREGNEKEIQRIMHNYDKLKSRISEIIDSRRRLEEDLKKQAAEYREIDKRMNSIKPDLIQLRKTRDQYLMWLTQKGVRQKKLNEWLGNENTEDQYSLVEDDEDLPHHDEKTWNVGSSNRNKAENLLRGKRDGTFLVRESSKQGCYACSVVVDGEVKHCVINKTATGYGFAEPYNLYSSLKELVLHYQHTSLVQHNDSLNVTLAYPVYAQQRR
PI3K p110 beta/p85 alpha, sequence (P42338 whole entry): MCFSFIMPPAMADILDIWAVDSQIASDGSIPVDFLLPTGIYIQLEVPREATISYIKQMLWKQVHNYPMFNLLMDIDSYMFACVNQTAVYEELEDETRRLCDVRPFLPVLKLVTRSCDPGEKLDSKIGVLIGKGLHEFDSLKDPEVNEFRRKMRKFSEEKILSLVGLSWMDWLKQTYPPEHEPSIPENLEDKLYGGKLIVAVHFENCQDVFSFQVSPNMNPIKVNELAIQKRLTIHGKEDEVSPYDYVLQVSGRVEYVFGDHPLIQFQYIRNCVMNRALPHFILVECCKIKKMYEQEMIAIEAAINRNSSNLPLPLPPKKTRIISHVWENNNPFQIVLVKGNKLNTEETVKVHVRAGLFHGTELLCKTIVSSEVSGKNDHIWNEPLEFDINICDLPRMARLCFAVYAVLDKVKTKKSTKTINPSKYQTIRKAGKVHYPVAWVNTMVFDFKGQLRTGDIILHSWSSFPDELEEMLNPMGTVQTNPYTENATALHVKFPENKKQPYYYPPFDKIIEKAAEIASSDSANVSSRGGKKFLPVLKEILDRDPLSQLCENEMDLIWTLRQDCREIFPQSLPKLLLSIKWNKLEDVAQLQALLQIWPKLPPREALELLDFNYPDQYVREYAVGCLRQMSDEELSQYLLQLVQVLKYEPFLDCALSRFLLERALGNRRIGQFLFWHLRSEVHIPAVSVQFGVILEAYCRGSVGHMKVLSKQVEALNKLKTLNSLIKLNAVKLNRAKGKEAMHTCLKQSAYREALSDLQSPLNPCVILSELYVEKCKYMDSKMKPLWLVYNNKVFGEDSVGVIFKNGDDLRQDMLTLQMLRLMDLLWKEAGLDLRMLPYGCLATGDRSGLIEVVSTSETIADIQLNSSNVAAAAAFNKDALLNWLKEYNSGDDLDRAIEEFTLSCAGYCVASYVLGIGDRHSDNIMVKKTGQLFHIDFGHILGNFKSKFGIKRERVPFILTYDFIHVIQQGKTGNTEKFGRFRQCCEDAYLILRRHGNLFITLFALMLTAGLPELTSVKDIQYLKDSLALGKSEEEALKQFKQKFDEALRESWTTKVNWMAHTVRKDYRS

[1] = biological target: PI3-kinase p110-delta/p85-alpha (Homo sapiens, UniProt O00329); test: Inhibition of recombinant human PI3K p110delta/p85alpha using phosphatidylinositol 4,5-bisphosphate as substrate preincubated for 15 mins followed by addition of ATP and measured after 30 mins by fluorescence polarisation assay; assay type: protein-complex assay
PI3-kinase p110-delta/p85-alpha, sequence (P27986 whole entry, one chain of several): as the sequence (P27986 whole entry) above

[2] = Distribution coefficient, logD of compound at pH 7.4; assay type: physicochemical; conditions: octanol/water
[3] = Apparent intrinsic clearance in human liver microsomes; assay type: ADME, Microsome; conditions: read-out: CLH(app)
[4] = Passive permeability of compound in RRCK cells; assay type: ADME, cell-based, Canis lupus familiaris, MDCKII-LE; conditions: dog, MDCK; read-out: permeability
[5] = Kinetic solubility of compound; assay type: physicochemical; conditions: read-out: Kinetic_solubility
Homo sapiens [6] = species on record: Homo sapiens; test: Selectivity index, ratio of Ki for recombinant human PI3K p110beta/p85alpha to Ki for recombinant human full-length PI3K p110alpha/p85alpha (322 to 600) using phosphatidylinositol 4,5-bisphosphate as substrate
Homo sapiens [7] = species on record: Homo sapiens; test: Selectivity index, ratio of Ki for recombinant human PI3K p110delta/p85alpha to Ki for recombinant human full-length PI3K p110alpha/p85alpha (322 to 600) using phosphatidylinositol 4,5-bisphosphate as substrate
[8] = biological target: T1, Phosphatidylinositol 4,5-bisphosphate 3-kinase catalytic subunit delta isoform (Homo sapiens, UniProt O00329); test: Inhibition of recombinant human N-terminal Myr signal and C-terminal Flag-tagged PI3K p110delta expressed in rat Rat1 cells; assay type: cell-based
T1 sequence (O00329 whole entry): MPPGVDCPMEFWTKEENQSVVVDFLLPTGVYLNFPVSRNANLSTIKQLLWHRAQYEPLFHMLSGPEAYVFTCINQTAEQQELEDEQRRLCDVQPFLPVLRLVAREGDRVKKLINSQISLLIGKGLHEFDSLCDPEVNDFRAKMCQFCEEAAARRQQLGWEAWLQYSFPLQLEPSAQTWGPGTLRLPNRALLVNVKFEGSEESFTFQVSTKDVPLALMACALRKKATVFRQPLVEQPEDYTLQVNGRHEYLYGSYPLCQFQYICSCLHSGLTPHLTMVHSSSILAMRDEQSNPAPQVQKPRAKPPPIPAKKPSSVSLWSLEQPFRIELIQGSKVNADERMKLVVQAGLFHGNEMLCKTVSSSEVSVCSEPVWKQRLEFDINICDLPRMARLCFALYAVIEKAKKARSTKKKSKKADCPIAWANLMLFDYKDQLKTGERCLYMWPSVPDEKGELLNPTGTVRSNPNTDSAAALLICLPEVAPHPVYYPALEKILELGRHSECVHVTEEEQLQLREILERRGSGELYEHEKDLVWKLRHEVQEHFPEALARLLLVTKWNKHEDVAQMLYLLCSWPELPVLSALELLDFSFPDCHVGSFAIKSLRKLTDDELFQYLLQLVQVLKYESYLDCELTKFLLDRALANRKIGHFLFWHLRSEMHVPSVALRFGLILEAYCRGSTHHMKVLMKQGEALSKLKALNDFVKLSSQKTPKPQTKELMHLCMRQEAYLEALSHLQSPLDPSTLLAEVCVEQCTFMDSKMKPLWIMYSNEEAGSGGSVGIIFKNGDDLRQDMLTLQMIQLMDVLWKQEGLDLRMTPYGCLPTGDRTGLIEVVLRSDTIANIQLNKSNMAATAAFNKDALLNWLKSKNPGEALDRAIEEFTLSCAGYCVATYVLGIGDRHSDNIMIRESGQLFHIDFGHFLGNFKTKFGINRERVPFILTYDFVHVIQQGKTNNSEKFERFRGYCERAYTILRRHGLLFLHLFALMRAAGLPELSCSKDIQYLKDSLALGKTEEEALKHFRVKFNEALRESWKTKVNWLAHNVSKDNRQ

[9] = biological target: Phosphatidylinositol 4,5-bisphosphate 3-kinase catalytic subunit beta isoform (Homo sapiens, UniProt P42338); test: Inhibition of recombinant human N-terminal Myr signal and C-terminal Flag-tagged PI3K p110beta expressed in rat Rat1 cells; assay type: cell-based
Phosphatidylinositol 4,5-bisphosphate 3-kinase catalytic subunit beta isoform, sequence (P42338 whole entry, canonical isoform): as the sequence (P42338 whole entry) above

[10] = biological target: Phosphatidylinositol 4,5-bisphosphate 3-kinase catalytic subunit alpha isoform (Homo sapiens, UniProt P42336); test: Inhibition of recombinant human N-terminal Myr signal and C-terminal Flag-tagged PI3K p110alpha expressed in rat Rat1 cells; assay type: cell-based
Phosphatidylinositol 4,5-bisphosphate 3-kinase catalytic subunit alpha isoform, sequence (P42336 whole entry, canonical isoform): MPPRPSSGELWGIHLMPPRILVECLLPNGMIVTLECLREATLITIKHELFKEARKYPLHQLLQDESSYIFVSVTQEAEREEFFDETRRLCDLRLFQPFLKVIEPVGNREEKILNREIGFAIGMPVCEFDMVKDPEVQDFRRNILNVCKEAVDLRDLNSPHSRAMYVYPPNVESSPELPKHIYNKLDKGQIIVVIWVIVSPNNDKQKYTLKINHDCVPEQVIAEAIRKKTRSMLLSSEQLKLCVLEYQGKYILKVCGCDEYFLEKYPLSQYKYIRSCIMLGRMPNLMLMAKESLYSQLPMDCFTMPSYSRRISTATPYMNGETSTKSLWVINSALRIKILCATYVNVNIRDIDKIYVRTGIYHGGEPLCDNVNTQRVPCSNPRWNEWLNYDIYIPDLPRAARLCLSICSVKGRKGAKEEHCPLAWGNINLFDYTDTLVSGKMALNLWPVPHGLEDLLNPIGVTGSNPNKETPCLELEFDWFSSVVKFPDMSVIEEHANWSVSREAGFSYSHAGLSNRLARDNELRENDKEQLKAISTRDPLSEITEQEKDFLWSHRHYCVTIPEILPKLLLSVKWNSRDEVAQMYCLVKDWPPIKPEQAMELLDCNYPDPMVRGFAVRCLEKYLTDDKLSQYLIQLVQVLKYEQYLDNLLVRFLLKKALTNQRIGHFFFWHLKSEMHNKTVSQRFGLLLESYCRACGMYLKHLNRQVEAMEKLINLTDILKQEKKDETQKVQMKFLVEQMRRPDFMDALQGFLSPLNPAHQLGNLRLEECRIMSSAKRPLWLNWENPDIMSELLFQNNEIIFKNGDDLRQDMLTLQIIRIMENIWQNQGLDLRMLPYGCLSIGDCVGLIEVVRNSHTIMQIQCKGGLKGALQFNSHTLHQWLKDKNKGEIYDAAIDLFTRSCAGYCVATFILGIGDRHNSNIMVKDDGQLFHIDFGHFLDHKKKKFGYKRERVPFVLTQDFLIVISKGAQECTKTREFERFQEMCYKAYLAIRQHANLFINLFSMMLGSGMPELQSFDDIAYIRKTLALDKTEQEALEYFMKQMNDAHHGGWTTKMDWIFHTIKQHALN

Rat1 [11] = test: Selectivity index, ratio of IC50 for recombinant human N-terminal Myr signal and C-terminal Flag-tagged PI3K p110delta to IC50 for recombinant human N-terminal Myr signal and C-terminal Flag-tagged PI3K p110alpha expressed in rat Rat1 cells; assay type: cell-based
Rat1 [12] = test: Selectivity index, ratio of IC50 for recombinant human N-terminal Myr signal and C-terminal Flag-tagged PI3K p110beta to IC50 for recombinant human N-terminal Myr signal and C-terminal Flag-tagged PI3K p110alpha expressed in rat Rat1 cells; assay type: cell-based
[13] = biological target: PI3-kinase p110-alpha/p85-alpha (Homo sapiens, UniProt P42336); test: Inhibition of recombinant human full-length PI3K p110alpha/p85alpha (322 to 600) expressed in baculovirus infected Sf21 cells using phosphatidylinositol 4,5-bisphosphate as substrate preincubated for 15 mins followed by addition of ATP and measured after 30 mins by fluorescence polarisation assay
PI3-kinase p110-alpha/p85-alpha, sequence (P27986 whole entry): as the sequence (P27986 whole entry) above
PI3-kinase p110-alpha/p85-alpha, sequence (P42336 whole entry): as the sequence (P42336 whole entry, canonical isoform) above

solubility kinetic [5] [µM]	pIC50 [8]	pIC50 [9]	pKi [13]	SMILES	pKi (PI3K p110 beta/p85 alpha)	pKi [1]	logD [2]	microsomal CLint [3] [µL/min/mg]	Papp [4] [×10⁻⁶ cm/s]	Ratio Ki (Homo sapiens [6])	Ratio Ki (Homo sapiens [7])	pIC50 [10]	Ratio IC50 (Rat1 [11])	Ratio IC50 (Rat1 [12])
500 (≈ 226 µg/mL)	7.77	6.59	> 10.74	CC(C)C(=O)N1CC[C@](C)(N2CCc3c(-c4cnc(N)nc4)nc(N4CCOCC4)nc32)C1	7.77	> 9.55	2.4	46	36	–	–	8.16	3	37
510 (≈ 243 µg/mL)	7.36	6.77	> 10.74	CNS(=O)(=O)N1CC[C@](C)(N2CCc3c(-c4cnc(N)nc4)nc(N4CCOCC4)nc32)C1	8.31	> 9.55	1.9	20	24	–	–	7.57	–	–
390 (≈ 166 µg/mL)	–	–	9.24	CNC(=O)N1CC[C@H](N2CCc3c(-c4cnc(N)nc4)nc(N4CCOCC4)nc32)C1	7.62	8.43	1.3	< 8	6.1	–	–	–	–	–
460 (≈ 202 µg/mL)	6.96	6.39	10.08	CNC(=O)N1CC[C@](C)(N2CCc3c(-c4cnc(N)nc4)nc(N4CCOCC4)nc32)C1	7.62	9.14	1.7	< 11	13	–	–	7.14	–	–
540 (≈ 239 µg/mL)	< 5.00	< 5.00	–	CC(C)C(=O)N1CC[C@](CO)(Nc2cc(-c3cnc(N)nc3)nc(N3CCOCC3)n2)C1	7.72	> 9.55	1.4	17	0.19	–	–	–	–	–
210 (≈ 54.2 µg/mL)	–	–	–	Nc1ncc(-c2ccnc(N3CCOCC3)n2)cn1	7.82	7.09	1.5	–	28	–	–	–	–	–
42 (≈ 18.8 µg/mL)	6.52	6.44	> 10.74	COC(=O)N1CC[C@](CO)(Nc2nc(N3CCOCC3)nc(-c3cnc(N)nc3)c2F)C1	8.30	> 9.55	1.6	< 8	6.2	–	–	7.33	–	–
460 (≈ 217 µg/mL)	5.92	5.34	–	CC(C)(C)OC(=O)N1CC[C@](CO)(Nc2cc(-c3cnc(N)nc3)nc(N3CCOCC3)n2)C1	7.27	8.68	2.7	140	18	–	–	–	–	–
430 (≈ 158 µg/mL)	–	–	8.68	Nc1ncc(-c2nc(N3CCOCC3)nc3c2CCN3[C@H]2CCNC2)cn1	7.77	7.40	-0.74	13	1.9	–	–	–	–	–
540 (≈ 249 µg/mL)	7.12	6.82	> 10.54	C[C@]1(N2CCc3c(-c4cnc(N)nc4)nc(N4CCOCC4)nc32)CCN(S(C)(=O)=O)C1	8.04	9.59	1.6	36	26	–	–	7.47	–	–
490 (≈ 216 µg/mL)	7.89	7.35	> 10.64	COC(=O)N1CC[C@](C)(N2CCc3c(-c4cnc(N)nc4)nc(N4CCOCC4)nc32)C1	9.10	> 9.55	2.6	29	27	–	–	8.30	–	–

SMILES	solubility kinetic [5] [µM]	pIC50 [8]	pIC50 [9]	pKi [13]	pKi (PI3K p110 beta/p85 alpha)	pKi [1]	logD [2]	microsomal CLint [3] [µL/min/mg]	Papp [4] [×10⁻⁶ cm/s]	Ratio Ki (Homo sapiens [6])	Ratio Ki (Homo sapiens [7])	pIC50 [10]	Ratio IC50 (Rat1 [11])	Ratio IC50 (Rat1 [12])
CC(=O)N1CC[C@H](N2CCc3c(-c4cnc(N)nc4)nc(N4CCOCC4)nc32)C1	530 (≈ 218 µg/mL)	–	–	–	7.70	7.66	1.1	< 8	13	17	19	–	–	–
CS(=O)(=O)N1CC[C@](CO)(Nc2cc(-c3cnc(N)nc3)nc(N3CCOCC3)n2)C1	–	< 5.00	< 5.00	–	7.96	> 9.55	0.79	< 8	0.22	–	–	5.89	–	–
Nc1ncc(-c2cc(N[C@@]3(CO)CCN(C(=O)OCC(F)F)C3)nc(N3CCOCC3)n2)cn1	9.9 (≈ 4.76 µg/mL)	6.00	5.72	–	8.40	> 9.55	1.7	17	3.9	–	–	7.28	–	–
CS(=O)(=O)N1CC[C@H](N2CCc3c(-c4cnc(N)nc4)nc(N4CCOCC4)nc32)C1	61 (≈ 27.2 µg/mL)	–	–	9.82	7.80	8.35	1.3	< 8	18	–	–	–	–	–
CNS(=O)(=O)N1CC[C@H](N2CCc3c(-c4cnc(N)nc4)nc(N4CCOCC4)nc32)C1	380 (≈ 175 µg/mL)	–	–	9.92	7.80	8.35	1.4	< 11	16	125	37	6.89	–	–
CC(C)(N)C(=O)N1CC[C@](C)(N2CCc3c(-c4cnc(N)nc4)nc(N4CCOCC4)nc32)C1	460 (≈ 215 µg/mL)	6.92	6.48	10.64	7.89	8.60	0.4	< 9	4.2	–	–	7.60	5	13
COC(=O)N1CC[C@H](N2CCc3c(-c4cnc(N)nc4)nc(N4CCOCC4)nc32)C1	56 (≈ 23.9 µg/mL)	–	–	–	7.44	8.02	1.9	< 8	20	–	–	–	–	–
CC(C)(C)OC(=O)N1CC[C@](C)(Nc2cc(-c3cnc(N)nc3)nc(N3CCOCC3)n2)C1	270 (≈ 123 µg/mL)	6.34	5.30	–	7.17	8.29	3.8	110	11	–	–	6.96	–	–
COC(=O)N1CC[C@](CO)(Nc2cc(-c3cnc(N)nc3)nc(N3CCOCC3)n2)C1	19 (≈ 8.18 µg/mL)	5.64	5.74	–	8.77	> 9.55	1.5	13	1	–	–	7.04	–	–
CC(C)(O)C(=O)N1CC[C@](C)(N2CCc3c(-c4cnc(N)nc4)nc(N4CCOCC4)nc32)C1	460 (≈ 216 µg/mL)	6.82	6.00	10.52	7.34	8.17	2	16	25	–	–	7.28	–	–
CC(=O)N1CC[C@@](C)(N2CCc3c(-c4cnc(N)nc4)nc(N4CCOCC4)nc32)C1	520 (≈ 221 µg/mL)	7.13	7.02	10.11	8.17	8.92	1.6	< 8	16	–	–	7.46	–	–
